Assay results taken from US20240307374A1, “FORMULATION OF FURIN INHIBITOR FOR INHALATION” (BP ASSET V, INC., priority 2021, published 2024).
Converted amounts (≈) assume the structure as drawn. Like-named read-outs stand apart in the source and are kept apart here.

Legend:
Assay type in all cases: physicochemical
[1] = Solubility of freeform in acetone/H2O systems with various water activities; conditions: for solubility at 2 days: thermodynamic from solid
Procedure: To measure the solubility of freeform in acetone/H2O systems with various water activities, the above experiments were re-performed with addition of aw=0.3 acetone/H2O system. The suspension sample was centrifuged to obtain precipitate and supernatants. Solubility was tested for the supernatants after filtration, and isolated precipitate was tested by XRPD.

[2] = Solubility profile of freeform Type D in citrate buffers; conditions: for solubility at 24 h: thermodynamic from solid, read-out: Solubility
Procedure: Additional solids were added into the sample to generate suspension if clear solution was obtained. The suspension was equilibrated via stirring (1000 rpm) for 24 hours. The suspension was centrifuged to obtain precipitate and supernatants. Solubility and pH were tested for the supernatants after filtration, and the isolated precipitate was tested by XRPD.

[3] = Formulation development with NaCl; conditions: ~35 mg freeform Type D + ~9.6 mg citric acid + ~6.1 mg NaCl in water
Procedure: The concentration of freeform in the suspension was 0.60 mg/mL (pH 3.8). […] The experiment was redone, and a clear solution (a little cloudy) was obtained immediately after adding 1 mL water into ˜32 mg/mL API+9.6 mg/mL critic acid, solid precipitated out after addition of NaCl.

With CC(=O)NCC1CCN(Cc2cc(Oc3ccc(N4CCN(CCC(=O)O)CC4)nc3)nc(-c3cc(Cl)cc(Cl)c3)c2)CC1 [Freeform Type A] the solubility ([1]; Acetone/H2O (605:395), aw 0.8, RT) was 10.265 (Type A) mg/mL, the solubility at 2 days ([1]; acetone/H2O (605:395), aw 0.8, organic solvent or mixture, Acetone/H2O (605:395), aw 0.8, RT) was 10300 µg/mL (≈ 16.1 mM) and the solubility at 2 days ([1]; acetone/H2O (858:142), aw 0.6, organic solvent or mixture, Acetone/H2O (858:142), aw 0.6, RT) was 3290 µg/mL (≈ 5.12 mM). It also gave a solubility at 2 days ([1]; acetone/H2O (950:50), aw 0.4, organic solvent or mixture, Acetone/H2O (950:50), aw 0.4, RT) of 1160 µg/mL (≈ 1.8 mM), a solubility at 2 days ([1]; acetone/H2O (973:27), aw 0.3, organic solvent or mixture, Acetone/H2O (973:27), aw 0.3, RT) of 1440 µg/mL (≈ 2.24 mM) and a solubility at 2 days ([1]; water (aw 1), water, H2O, aw 1, RT) of 10 µg/mL (≈ 0.0156 mM).

With CC(=O)NCC1CCN(Cc2cc(Oc3ccc(N4CCN(CCC(=O)O)CC4)nc3)nc(-c3cc(Cl)cc(Cl)c3)c2)CC1 [Freeform Type D] the solubility at 24 h ([2]; 50 mM citrate buffer, pH 4.89, aqueous buffer) was 13200 µg/mL (≈ 20.6 mM), the “form change after equilibrium in all citrate buffers (XRPD)” value ([2]; 10/20/50/100 mM citrate buffers, 24 hours) was “No form change” and the solubility at 24 h ([2]; aqueous buffer, 10 mM citrate buffer, buffer pH 2.88, RT, 24 hours, end pH 4.47) was 8600 µg/mL (≈ 13.4 mM). For the same compound, the solubility at 24 h ([2]; aqueous buffer, 10 mM citrate buffer, buffer pH 3.34, RT, 24 hours, end pH 4.57) was 4000 µg/mL (≈ 6.23 mM), the solubility at 24 h ([2]; aqueous buffer, 10 mM citrate buffer, buffer pH 3.89, RT, 24 hours, end pH 4.76) was 3400 µg/mL (≈ 5.3 mM) and the solubility at 24 h ([2]; aqueous buffer, 10 mM citrate buffer, buffer pH 4.30, RT, 24 hours, end pH 4.82) was 2100 µg/mL (≈ 3.27 mM). The solubility at 24 h ([2]; aqueous buffer, 10 mM citrate buffer, buffer pH 4.90, RT, 24 hours, end pH 5.21) was 700 µg/mL (≈ 1.09 mM), the solubility at 24 h ([2]; aqueous buffer, 20 mM citrate buffer, buffer pH 3.02, RT, 24 hours, end pH 4.59) was 14000 µg/mL (≈ 21.8 mM) and the solubility at 24 h ([2]; aqueous buffer, 20 mM citrate buffer, buffer pH 3.55, RT, 24 hours, end pH 4.69) was 9800 µg/mL (≈ 15.3 mM). For the same compound, the solubility at 24 h ([2]; aqueous buffer, 20 mM citrate buffer, buffer pH 4.01, RT, 24 hours, end pH 4.67) was 5500 µg/mL (≈ 8.57 mM), the solubility at 24 h ([2]; aqueous buffer, 20 mM citrate buffer, buffer pH 4.60, RT, 24 hours, end pH 4.91) was 2300 µg/mL (≈ 3.58 mM) and the solubility at 24 h ([2]; aqueous buffer, 20 mM citrate buffer, buffer pH 4.98, RT, 24 hours, end pH 5.28) was 800 µg/mL (≈ 1.25 mM). It also gave a solubility at 24 h ([2]; aqueous buffer, 50 mM citrate buffer, buffer pH 3.76, RT, 24 hours, end pH 4.82) of 23800 µg/mL (≈ 37.1 mM), a solubility at 24 h ([2]; aqueous buffer, 50 mM citrate buffer, buffer pH 4.70, RT, 24 hours, end pH 4.93) of 4700 µg/mL (≈ 7.33 mM) and a solubility at 24 h ([2]; aqueous buffer, 50 mM citrate buffer, buffer pH 5.27, RT, 24 hours, end pH 5.33) of 800 µg/mL (≈ 1.25 mM). For the same compound, the solubility at 24 h ([2]; aqueous buffer, 100 mM citrate buffer, buffer pH 3.60, RT, 24 hours, end pH 4.92) was 24300 µg/mL (≈ 37.9 mM), the solubility at 24 h ([2]; aqueous buffer, 100 mM citrate buffer, buffer pH 4.07, RT, 24 hours, end pH 4.88) was 56800 µg/mL (≈ 88.5 mM) and the solubility at 24 h ([2]; aqueous buffer, 100 mM citrate buffer, buffer pH 4.51, RT, 24 hours, end pH 5.03) was 21200 µg/mL (≈ 33 mM). The solubility at 24 h ([2]; aqueous buffer, 100 mM citrate buffer, buffer pH 5.03, RT, 24 hours, end pH 5.16) was 4400 µg/mL (≈ 6.86 mM), the solubility at 24 h ([2]; pH 4.7, aqueous buffer, 50 mM citrate buffer, buffer pH 3.23, RT, 24 hours, end pH 4.70) was 33200 µg/mL (≈ 51.7 mM) and the solubility at 24 h ([2]; pH 5.5, aqueous buffer, 100 mM citrate buffer, buffer pH 5.42, RT, 24 hours, end pH 5.50) was 600 µg/mL (≈ 0.935 mM). For the same compound, the pH ([3]; 24 hours) was 3.8 and the “concentration of freeform in the suspension” value ([3]; 24 hours stirring) was 600 µg/mL.
